According to patent publication US6784153B1, “Methods of homing molecules to lung using membrane dipeptidase” (The Burnham Institute, priority 1998, dated 2004):

Experiments:
primary brain cells = experiment: phage binding assay on primary brain cells; parameters: species or system mice; details: in vitro
Description: (§1) Phage binding to primary cells was performed as follows. Briefly, Balb/c mice (Harlan Sprague Dawley) were anesthetized with 0.017 ml/g of Avertin as described in Gardner et al., Lab. Animal Sci. 45:199-204 (1995), which is incorporated herein by reference. Under deep anesthesia, mice were perfused through the heart with 10 ml Dulbecco's modified Eagle's medium (DMEM; Irvine Scientific; Santa Ana, Calif.). The lungs, kidneys and brain were then collected, minced, placed in 2 ml of DMEM containing 0.5% BSA (Intergen; Purchase, N.Y.) and 0.5 μg/ml collagenase V (SIGMA) and incubated at 37° C. for 25 minutes. Following collagenase treatment, the tissue was forced through a […] pore cell strainer (Becton Dickinson; Franklin Lake, N.J.). The filtered cells were washed once with 10 ml DMEM supplemented with 10% serum. […] To ensure an equal input of the different phage to be tested, phage were titered several times using K91Kan bacteria (Smith and Scott, supra, 1993).
(§2) For the binding reaction, 10^9 transducing units (TU) of phage were incubated with 5×10^6 cells in 1 ml DMEM supplemented with 10% serum. The binding was performed at 4° C. for 2 hours with gentle agitation. […] Plates were incubated at 37° C. overnight before the colonies were counted (transducing units, TU).

kidney cells = experiment: phage binding assay on kidney primary cells; parameters: species or system mice; details: t test, p<0.02
Description: as §1, §2

mouse B16 = experiment: experimental lung metastasis of B16 melanoma cells; assay type: in vivo, mice; details: mouse B16 melanoma cell line
Source text: As disclosed herein, selective homing of GFE-1 (SEQ ID NO: 1) to lung endothelium in vivo is mediated by the cell surface protease, MDP.

lung = experiment: immunohistologic analysis of lung homing phage; assay type: in vivo, mice
Description: Phage displaying homing peptides were detected in lung, pancreas and skin by immunostaining histologic sections obtained 5 min after administration of phage expressing a lung, pancreas or skin homing peptide (“peptide-phage”) to a mouse. Following administration of the peptide-phage, mice were handled as described above and various organs, including lung, pancreas and skin, were removed and fixed in Bouin's solution (SIGMA). Histologic sections were prepared and reacted with anti-M13 (phage) antibodies (Pharmacia Biotech; see U.S. Pat. No. 5,622,699, supra, 1997; Pasqualini and Ruoslahti, supra, 1996). Visualization of the bound anti-M13 antibody was performed using a second antibody conjugated to peroxidase (SIGMA) according to the manufacturer's instructions.
Phage displaying the lung homing peptide, GFE-1 (SEQ ID NO: 1), were administered intravenously to mice and, after 5 minutes of circulation, the lung was isolated and processed as described above. […] However, staining of bronchiolar walls and some larger blood vessels was absent.

lung primary cells = experiment: phage binding assay on lung primary cells; parameters: species or system mice
Description: Phage binding to primary cells was performed as follows. Briefly, Balb/c mice (Harlan Sprague Dawley) were anesthetized with 0.017 ml/g of Avertin as described in Gardner et al., Lab. […] Under deep anesthesia, mice were perfused through the heart with 10 ml Dulbecco's modified Eagle's medium (DMEM; Irvine Scientific; Santa Ana, Calif.). The lungs, kidneys and brain were then collected, minced, placed in 2 ml of DMEM containing 0.5% BSA (Intergen; Purchase, N.Y.) and 0.5 μg/ml collagenase V (SIGMA) and incubated at 37° C. for 25 minutes. Following collagenase treatment, the tissue was forced through a […] pore cell strainer (Becton Dickinson; Franklin Lake, N.J.). The filtered cells were washed once with 10 ml DMEM supplemented with 10% serum.
For the binding reaction, 10^9 transducing units (TU) of phage were incubated with 5×10^6 cells in 1 ml DMEM supplemented with 10% serum. The binding was performed at 4° C. for 2 hours with gentle agitation. After the binding reaction, the cells were washed four times with 1 ml of DMEM supplemented with 10% serum at room temperature for 5 to 10 minutes each time. The cells were centrifuged, and the cell pellet resuspended in 100 μl of DMEM and transferred to a new tube. […] The bacteria were then diluted in 10 ml of LB culture media supplemented with 0.2 μg/ml tetracycline, and incubated for another 30 minutes at room temperature. Serial dilutions of the bacterial culture were plated on LB plates containing 40 μg/ml tetracycline. Plates were incubated at 37° C. overnight before the colonies were counted (transducing units, TU).

rat lung blood vessels = experiment: targeting of rat lung blood vessels by injected phage; assay type: in vivo; details: phage injected in the circulation
[1] = tested on: C8161 human melanoma cells; details: cells and peptide mixture cultured overnight; data not shown

CGFECVRQCPERC
phage binding to primary brain cells (primary brain cells): no specific binding
phage binding to kidney cells relative to fd-tet (kidney cells): higher than fd-tet binding
experimental lung metastasis (mouse B16): inhibit experimental lung metastasis
immunohistochemical staining of lung (lung; 5 min after intravenous phage): staining of the alveolar capillaries was observed
staining of pancreas and skin after lung homing phage (lung; control tissues): no staining was observed in pancreas and skin
inhibition of GFE-1 phage binding to lung cells (lung primary cells; 150 μM peptide): ~70%
phage bound by primary lung cells relative to insertless fd-tet phage (lung primary cells; 10^9 TU phage, 5×10^6 cells, 4° C., 2 hours): about 60 fold
targeting of rat lung blood vessels (rat lung blood vessels): selectively target rat lung blood vessels
toxicity to the melanoma cells [1]: Neither the GFE-1 (SEQ ID NO: 1) or CARAC (SEQ ID NO: 443) peptides exhibited toxicity
